“Also recorded” adds a separate entry of the source. Where a name gives a salt, the structure may show the parent alone.
Key:
[1] = tested on: STING activation (IFNβ release) in iBMDMs; test: IFNβ release ELISA after STING ligand (or LPS) stimulation, iBMDMs; type: cell-based, mouse; conditions: iBMDMs, 3′3′-cGAMP 10 μg/ml, 16 hours, compound 10 μM
Summary of the method: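 iBMDMs were stimulated with a STING ligand such as 3′3′-cGAMP, or with LPS. Secreted IFNβ in culture medium was measured by commercial mouse or human IFNβ ELISA.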

[2] = tested on: STING signaling (TBK1, IRF3, p65, ALK, EGFR, AKT phosphorylation) in RAW264.7 cells; test: Western blot of STING pathway protein phosphorylation, RAW264.7; type: cell-based, mouse; conditions: 16 hours, 10 μM
Experimental: (§1) For immunoblotting, cells were lysed in Cell Lysis Buffer (#9803, Cell Signaling Technology) with protease inhibitor cocktail (Promega), phosphatase inhibitor cocktail (Sigma), and 1 mM Na3VO4 (70). Cleared lysates were resolved by SDS-PAGE (#3450124, Bio-Rad) and then transferred onto PVDF membranes (#1704273, Bio-Rad). The membranes were blocked with Tris-buffered saline Tween 20 (TBST) containing 5% skim milk for 1 h at room temperature and then incubated with the indicated primary antibodies (1:1000-1:5000) overnight at 4° C. After being washed with TBST, the membranes were incubated with an HRP-linked anti-mouse IgG secondary antibody (#7076, Cell Signaling Technology) or HRP-linked anti-rabbit IgG secondary antibody (#7074, Cell Signaling Technology) for 1 h at room temperature. The membranes were washed three times in TBST and then visualized and analyzed with a ChemiDoc Touch Imaging System (#1708370, Bio-Rad). The intensities of bands were analyzed with Image Lab software.

[3] = tested on: STING signaling (TBK1, IRF3, p65, ALK, EGFR, AKT phosphorylation) in THP1 cells; test: Western blot of STING pathway protein phosphorylation, THP1; type: cell-based, human; conditions: 16 hours, 10 μM
Experimental: as §1

[4] = tested on: STING signaling (TBK1, IRF3, p65, ALK, EGFR, AKT phosphorylation) in iBMDMs; test: Western blot of STING pathway protein phosphorylation, iBMDMs; type: cell-based, mouse; conditions: 16 hours, 10 μM
Experimental: as §1

[5] = tested on: STING activation (IFNβ release) in pPBMCs; test: IFNβ release ELISA, primary peripheral blood mononuclear cells (pPBMCs); type: cell-based; conditions: human pPBMCs; 3′3′-cGAMP 10 μg/ml, 16 hours; compound 10 μM
Experimental: (§2) Macrophages or monocytes were treated with 3′3′-cGAMP (10 μg/ml, Invitrogen) for 16 hours in the absence or presence of one compound (10 μM) from the Target-selective Inhibitory Library (#L3500, Selleck Chemicals). Commercially available enzyme-linked immunosorbent assay (ELISA) kits were used to measure the concentrations of mouse IFNβ (Thermo Fisher Scientific) or human IFNβ (Thermo Fisher Scientific) in culture medium according to the manufacturer's instructions.

[6] = tested on: STING activation (IFNβ release) in pPMs; test: IFNβ release ELISA, primary peritoneal macrophages (pPMs); type: cell-based, mouse; conditions: mouse pPMs; 3′3′-cGAMP 10 μg/ml, 16 hours; compound 10 μM
Experimental: Mouse pPMs were isolated from C57BL/6J mice as previously described (69). In brief, eight-week-old female or male C57BL/6J mice were injected with 3.0% thioglycollate medium (2 mL/mouse) into the peritoneum. Three days after injection, mice were sacrificed and injected with 3 mL of 0.05% EDTA-PBS into the peritoneum to harvest peritoneal macrophages. Collected cells were centrifuged at 1000 rpm for 5 min at 4° C., and the cell pellet was washed with PBS and centrifuged again. The cell pellet was then suspended in Dulbecco's Modified Eagle Medium supplemented with 10% FBS and 1× Penicillin-Streptomycin and cultured in a culture dish.
as §2

iBMDMs = test: Cell viability assay (CCK-8), iBMDMs; type: cell-based, mouse; conditions: 3′3′-cGAMP 10 μg/ml, ALK inhibitor 10 μM, 16 hours
Experimental: (§3) Cells were seeded into 96-well plates and incubated with the indicated treatments. Subsequently, 100 μl fresh medium was added to cells containing 10 μl Cell Counting Kit-8 (CCK-8) solutions (Dojindo Laboratories) and incubated for 1 h (37° C., 5% CO2). Absorbance at 450 nm was measured using a microplate reader (Tecan).

RAW264.7 cells = test: Cell viability assay (CCK-8), RAW264.7; type: cell-based, mouse; conditions: 3′3′-cGAMP 10 μg/ml, ALK inhibitor 10 μM, 16 hours
Experimental: as §3

pPMs = test: Cell viability assay (CCK-8), pPMs; type: cell-based, mouse; conditions: 3′3′-cGAMP 10 μg/ml, ALK inhibitor 10 μM, 16 hours
Experimental: as §3

THP1 cells = test: Cell viability assay (CCK-8), THP1; type: cell-based, human; conditions: 3′3′-cGAMP 10 μg/ml, ALK inhibitor 10 μM, 16 hours
Experimental: as §3

[7] = 3′3′-cGAMP or c-di-AMP 10 μg/ml

Molecule: CC(C)NC[C@@H](C(=O)N1CCN(c2ncnc3c2[C@H](C)C[C@H]3O)CC1)c1ccc(Cl)cc1 [GDC-0068]
- fold increase in IFN-β release [1]: 0.86 fold
- STING ligand-induced phosphorylation of TBK1, IRF3, and p65 [2, 7]: diminished
- 3′3′-cGAMP- or c-di-AMP-induced phosphorylation of ALK, EGFR, and AKT ([2]; ligand 10 μg/ml): only blocked the phosphorylation of AKT, but not ALK or EGFR
- STING ligand-induced phosphorylation of TBK1, IRF3, and p65 [3, 7]: diminished
- 3′3′-cGAMP- or c-di-AMP-induced phosphorylation of ALK, EGFR, and AKT ([3]; ligand 10 μg/ml): only blocked the phosphorylation of AKT, but not ALK or EGFR
- STING ligand-induced phosphorylation of TBK1, IRF3, and p65 [4, 7]: diminished
- 3′3′-cGAMP- or c-di-AMP-induced phosphorylation of ALK, EGFR, and AKT ([4]; ligand 10 μg/ml): only blocked the phosphorylation of AKT, but not ALK or EGFR

Molecule: O=C(/C=C\n1cnc(-c2cc(C(F)(F)F)cc(C(F)(F)F)c2)n1)NNc1cnccn1 [KPT-330]
- 3′3′-cGAMP-induced IFNβ release [1]: blocked
- fold increase in IFN-β release [1]: 0.05 fold
- 3′3′-cGAMP-induced IFNβ release [5]: confirmed their inhibitory properties
- 3′3′-cGAMP-induced IFNβ release [6]: confirmed their inhibitory properties

Molecule: COc1cc(N2CCC(N3CCN(C)CC3)CC2)ccc1Nc1ncc(Cl)c(Nc2ccccc2P(C)(C)=O)n1 [AP26113]
- fold increase in IFN-β release [1]: 0.19 fold
- cell viability (iBMDMs): did not affect cell viability
- cell viability (RAW264.7 cells): did not affect cell viability
- cell viability (pPMs): did not affect cell viability
- cell viability (THP1 cells): did not affect cell viability

Molecule: C[C@@H]1CN(CC(=O)Nc2ccc3c(c2)Cc2cccc(-c4cc(=O)cc(N5CCOCC5)o4)c2S3)C[C@H](C)O1 [KU-60019]
- 3′3′-cGAMP-induced IFNβ release [1]: blocked
- fold increase in IFN-β release [1]: 0.06 fold
- 3′3′-cGAMP-induced IFNβ release [5]: confirmed their inhibitory properties
- 3′3′-cGAMP-induced IFNβ release [6]: confirmed their inhibitory properties

Molecule: Cl.NC(=O)c1cnc(N[C@@H]2CCCC[C@@H]2N)nc1Nc1cccc(-n2nccn2)c1 [PRT062607 (P505-15, BIIB057) HCl]
- 3′3′-cGAMP-induced IFNβ release [1]: blocked
- fold increase in IFN-β release [1]: 0.07 fold
- 3′3′-cGAMP-induced IFNβ release [5]: confirmed their inhibitory properties
- 3′3′-cGAMP-induced IFNβ release [6]: confirmed their inhibitory properties

Molecule: COc1cc(N2CCC(N)CC2)ccc1Nc1ncc(Cl)c(-c2c[nH]c3ccccc23)n1 [AZD3463]
- 3′3′-cGAMP-induced IFNβ release [1]: blocked; also recorded: diminished
- fold increase in IFN-β release [1]: 0.05 fold
- cell viability (iBMDMs): exhibited cytotoxicity
- 3′3′-cGAMP-induced IFNβ release [5]: confirmed their inhibitory properties
- cell viability (RAW264.7 cells): exhibited cytotoxicity
- cell viability (pPMs): exhibited cytotoxicity
- cell viability (THP1 cells): exhibited cytotoxicity
- 3′3′-cGAMP-induced IFNβ release [6]: confirmed their inhibitory properties

Molecule: COc1ccccc1-c1cc(Nc2cccc(CS(N)(=O)=O)c2)ncn1 [LDC000067]
- fold increase in IFN-β release [1]: 1.43 fold

Molecule: CC1=C(C(=O)OC2CCCCC2)C(c2ccc([N+](=O)[O-])cc2)C2=C(CC(C)(C)CC2=O)N1 (stereo not drawn) [FLI-06]
- fold increase in IFN-β release [1]: 2.06 fold

Molecule: Fc1cc(F)c2c(c1)C1C=CCC1C(c1cccnc1)N2 (stereo not drawn) [Golgicide A]
- fold increase in IFN-β release [1]: 4.19 fold

Molecule: CCCCCCCCCCCC1=C(O)C(=O)C=C(O)C1=O [Embelin]
- fold increase in IFN-β release [1]: 0.17 fold

Molecule: C=CC(=O)Nc1cc(Nc2nccc(-c3cn(C)c4ccccc34)n2)c(OC)cc1N(C)CCN(C)C [AZD9291]
- fold increase in IFN-β release [1]: 0.85 fold

Molecule: Cc1cn([C@H]2C=C[C@@H](CO)O2)c(=O)[nH]c1=O [Stavudine (d4T), Stavudine]
- 3′3′-cGAMP-induced IFNβ release [1]: promoted
- fold increase in IFN-β release [1]: 8.20 fold

Molecule: Br.COc1cc(Br)c(Nc2nc(-c3c(C)nc4ncccn34)cs2)c(Br)c1 [PTC-209 HBr]
- fold increase in IFN-β release [1]: 0.27 fold

Molecule: COc1cc(CCc2cc(NC(=O)c3ccc(N4CC(C)NC(C)C4)cc3)n[nH]2)cc(OC)c1 (stereo not drawn) [AZD4547]
- fold increase in IFN-β release [1]: 0.35 fold

Molecule: CC(C)OC(=O)C1=CN(C(=O)c2ccc(F)c(F)c2)CC(C)(C)c2c1[nH]c1ccccc21 [XL335]
- fold increase in IFN-β release [1]: 0.26 fold

Molecule: Nc1nc(N)c2nc(-c3ccccc3)c(N)nc2n1 [Triamterene]
- fold increase in IFN-β release [1]: 0.99 fold

Molecule: COc1c(C)c(C(=O)c2ccc(N)c(C(=O)[O-])c2)n2ccccc12.[Na+] [SSR128129E]
- fold increase in IFN-β release [1]: 0.98 fold

Molecule: COc1ccc2cccc(CCNC(C)=O)c2c1 [Agomelatine]
- fold increase in IFN-β release [1]: 0.97 fold

Molecule: O=C(O)/C=C/c1ccc(Cn2ccnc2)cc1 [Ozagrel HCl]
- fold increase in IFN-β release ([1]; HCl): 2.13 fold

Molecule: CN(c1ncccc1CNc1nc(Nc2ccc3c(c2)CC(=O)N3)ncc1C(F)(F)F)S(C)(=O)=O [PF-562271]
- fold increase in IFN-β release [1]: 0.21 fold

Molecule: CO[C@H]1C[C@@H]2CC[C@@H](C)[C@@](O)(O2)C(=O)C(=O)N2CCCC[C@H]2C(=O)O[C@H]([C@H](C)C[C@@H]2CC[C@@H](OCCO)[C@H](OC)C2)CC(=O)[C@H](C)/C=C(\C)[C@@H](O)[C@@H](OC)C(=O)[C@H](C)C[C@H](C)/C=C/C=C/C=C/1C [Everolimus (RAD001), Everolimus]
- fold increase in IFN-β release [1]: 1.01 fold

Molecule: O=C(O)c1ccc(N2C(=O)/C(=C\c3ccc(-c4ccc([N+](=O)[O-])cc4)o3)C=C2c2ccccc2)cc1 [4E1 RCat]
- fold increase in IFN-β release [1]: 2.36 fold

Molecule: CCN[C@H]1CN(CCCOC)S(=O)(=O)c2sc(S(N)(=O)=O)cc21 [Brinzolamide]
- fold increase in IFN-β release [1]: 1.93 fold

Molecule: Cc1ccc(-c2cc(C(F)(F)F)nn2-c2ccc(S(N)(=O)=O)cc2)cc1 [Celecoxib]
- fold increase in IFN-β release [1]: 0.76 fold

Molecule: Oc1c2ccccc2c2c3c(cccc13)N=N2 [SP600125]
- fold increase in IFN-β release [1]: 3.35 fold

Molecule: CCOc1nc2cccc(C(=O)O)c2n1Cc1ccc(-c2ccccc2-c2nnn[nH]2)cc1 [Candesartan]
- fold increase in IFN-β release [1]: 2.31 fold

Molecule: Cc1ccccc1C(C(=O)NC1CCCCC1)N(C(=O)Cn1ccnc1C)c1cccc(F)c1 (stereo not drawn) [AGI-5198]
- fold increase in IFN-β release [1]: 1.13 fold

Molecule: COC(=O)CCSCc1ccc(-c2onc(C)c2NC(=O)OC(C)c2ccccc2Cl)cc1 (stereo not drawn) [Ki16198]
- fold increase in IFN-β release [1]: 0.51 fold

Molecule: OC(CNCC(O)C1CCc2cc(F)ccc2O1)C1CCc2cc(F)ccc2O1 (stereo not drawn) [Nebivolol]
- fold increase in IFN-β release [1]: 0.75 fold

Molecule: C[C@@H]1C(=O)O[C@H]2C[C@@]34[C@H]5C[C@@H](C(C)(C)C)[C@]36[C@@H](OC(=O)[C@@H]6O)O[C@@]4(C(=O)O5)[C@]21O [Ginkgolide A]
- fold increase in IFN-β release [1]: 2.14 fold

Molecule: 6H05
- fold increase in IFN-β release [1]: 1.18 fold

Molecule: Oc1ccc(Nc2nc(-c3ccc(Cl)cc3)cs2)cc1 [SKI II]
- fold increase in IFN-β release [1]: 0.49 fold

Molecule: IM-12
- fold increase in IFN-β release [1]: 2.17 fold
